These compounds were tested against T1, human CB1 receptor (Homo sapiens, UniProt P21554) (assay: competitive radioligand binding assay, displacement of [3H]CP55,940, CB1). Conditions: Table 2; percent inhibition at 10 μM.
T1 construct: expressed in transfected cells; membrane-enriched fractions
Method: In addition, the affinity of test compounds of this invention toward CB1 and CB2 receptors was determined by competitive radioligand binding assays in vitro. This method differentiates the binding strength between compounds by their abilities in displacing a receptor-specific radioactive ligand. […] The readings of the radioactivity retained allow further analysis of receptor binding, and assist in predictions of the pharmacological activities of the test compounds.
In the assays, CB1 receptors are from human CB1 stably expressed cell lines, and CB2 receptors are from human CB2 stably expressed cell lines. For purification of membrane-enriched fractions, cells were scraped off from the culture dishes in ice-cold buffer A (50 mM Tris, 5 mM MgCl2, 2.5 mM EDTA, pH 7.4, 10% sucrose) with 1 mM PMSF. After sonication, the membrane-enriched fractions were centrifuged for 15 minutes at 2,000×g at 4° C. The supernatant was centrifuged again for 30 minutes at 43,000×g at 4° C. The final pellet was re-suspended in buffer A and stored at −80° C. The protein concentration of the purified membrane was determined by the Bradford method as described by the manual provided by Bio-Rad Laboratories, Inc., Hercules, Calif.
During the receptor binding experiments, 0.2˜8 μg of membrane fractions were incubated with 0.75 nM [^3H]CP55,940 and a test compound in the incubation buffer of 50 mM Tris-HCl, 5 mM MgCl2, 1 mM EDTA, 0.3% BSA, pH 7.4. The non-specific binding was determined by using 1 μM of CP55,940. The mixture was incubated for 1.5 hours at 30° C. in Multiscreen microplates (Millipore, Billerica, Mass.). At the completion of the incubation, the reaction was terminated by Manifold filtration and washed with ice-cold wash buffer (50 mM Tris, pH 7.4, 0.25% BSA) four times. The radioactivity bound to the filters was measured by Topcount (Perkin Elmer Inc.).

T1 sequence (P21554 whole entry): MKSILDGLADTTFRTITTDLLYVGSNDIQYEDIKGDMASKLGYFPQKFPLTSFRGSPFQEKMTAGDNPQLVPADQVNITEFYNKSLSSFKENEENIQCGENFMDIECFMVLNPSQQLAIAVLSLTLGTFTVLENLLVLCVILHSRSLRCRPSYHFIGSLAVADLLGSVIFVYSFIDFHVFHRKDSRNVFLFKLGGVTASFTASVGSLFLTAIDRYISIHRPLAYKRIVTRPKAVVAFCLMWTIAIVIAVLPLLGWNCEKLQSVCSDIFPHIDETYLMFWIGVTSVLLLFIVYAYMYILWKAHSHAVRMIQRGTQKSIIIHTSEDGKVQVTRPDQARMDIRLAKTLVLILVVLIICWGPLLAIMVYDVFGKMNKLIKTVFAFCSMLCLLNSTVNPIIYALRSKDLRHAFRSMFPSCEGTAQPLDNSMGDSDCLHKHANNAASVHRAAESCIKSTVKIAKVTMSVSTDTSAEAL

Row | SMILES | inhibition at 10 µM [%]
1 | CCCCCCNC(=O)n1nc(-c2ccc(Cl)cc2Cl)c(-c2ccc(Cl)cc2Cl)n1 [Compound 75] | 3.3
2 | Cc1cc(C)cc(NC(=O)n2nc(-c3ccc(Cl)cc3Cl)c(-c3ccc(Cl)cc3Cl)n2)c1 [Compound 76] | 12.7
3 | CCCCCCCCNC(=O)n1nc(-c2ccc(Cl)cc2Cl)c(-c2ccc(Cl)cc2Cl)n1 [Compound 77] | 27.5
4 | COc1ccc(NC(=O)n2nc(-c3ccc(Cl)cc3Cl)c(-c3ccc(Cl)cc3Cl)n2)cc1 [Compound 78] | 6.4
5 | O=C(Nc1ccc(Cl)cc1)n1nc(-c2ccc(Cl)cc2)c(-c2ccc(Cl)cc2)n1 [Compound 79] | 1.5
6 | O=C(NC1CCCCC1)n1nc(-c2ccc(Cl)cc2)c(-c2ccc(Cl)cc2)n1 [Compound 80] | 29.9
7 | CCCCCCNC(=O)n1nc(-c2ccc(Cl)cc2)c(-c2ccc(Cl)cc2)n1 [Compound 81] | 41.5
8 | CCCCCCCCNC(=O)n1nc(-c2ccc(Cl)cc2)c(-c2ccc(Cl)cc2)n1 [Compound 82] | 26.9
9 | CCCCC(=O)n1nc(-c2ccc(Cl)cc2)c(-c2ccc(Cl)cc2)n1 [Compound 83] | 11.8
10 | CCCCCCCC(=O)n1nc(-c2ccc(Cl)cc2)c(-c2ccc(Cl)cc2)n1 [Compound 84] | 21.2
11 | CCCCCCCCC(=O)n1nc(-c2ccc(Cl)cc2)c(-c2ccc(Cl)cc2)n1 [Compound 85] | 18.3
12 | CCCCCNC(=O)n1nc(-c2ccc(Cl)cc2)c(-c2ccc(Cl)cc2)n1 [Compound 86] | 8.4
13 | CCCCCCCNC(=O)n1nc(-c2ccc(Cl)cc2)c(-c2ccc(Cl)cc2)n1 [Compound 87] | 12.9
14 | CCCCCNC(=O)n1nc(-c2ccc(Cl)cc2Cl)c(-c2ccc(Cl)cc2Cl)n1 [Compound 88] | 7
15 | CCCCCCCNC(=O)n1nc(-c2ccc(Cl)cc2Cl)c(-c2ccc(Cl)cc2Cl)n1 [Compound 89] | 12.9
16 | CCCCCNC(=O)n1nc(-c2ccc(Cl)cc2)c(-c2ccc(Cl)cc2Cl)n1 [Compound 90] | 14.4
17 | O=C(NCCc1ccccc1)n1nc(-c2ccc(Cl)cc2Cl)c(-c2ccc(Cl)cc2Cl)n1 [Compound 91] | 11.2
18 | CCCCOC(=O)CNC(=O)n1nc(-c2ccc(Cl)cc2Cl)c(-c2ccc(Cl)cc2Cl)n1 [Compound 92] | 22.3
19 | O=C(NC1CCCCC1)n1nc(-c2ccc(Cl)cc2)c(-c2ccc(Cl)cc2Cl)n1 [Compound 93] | 30.5
20 | CCCCCCNC(=O)n1nc(-c2ccc(Cl)cc2)c(-c2ccc(Cl)cc2Cl)n1 [Compound 94] | 10.9
21 | CCCCCCCNC(=O)n1nc(-c2ccc(Cl)cc2)c(-c2ccc(Cl)cc2Cl)n1 [Compound 95] | 14.9
22 | CCCCCCCCNC(=O)n1nc(-c2ccc(Cl)cc2)c(-c2ccc(Cl)cc2Cl)n1 [Compound 96] | 17.7
23 | O=C(NCCc1ccccc1)n1nc(-c2ccc(Cl)cc2)c(-c2ccc(Cl)cc2Cl)n1 [Compound 103] | 23.4
24 | CCCCOC(=O)CNC(=O)n1nc(-c2ccc(Cl)cc2)c(-c2ccc(Cl)cc2Cl)n1 [Compound 104] | 11.8
25 | O=C(NCc1ccccc1)n1nc(-c2ccc(Cl)cc2)c(-c2ccc(Cl)cc2Cl)n1 [Compound 105] | 18.6
26 | O=C(NC12CC3CC(CC(C3)C1)C2)n1nc(-c2ccccc2)c(-c2ccccc2)n1 [Compound 106] | 4.8
27 | O=C(NC12CC3CC(CC(C3)C1)C2)n1nc(-c2ccc(Cl)cc2)c(-c2ccc(Cl)cc2)n1 [Compound 107] | 19.7

Row | SMILES | inhibition at 10 µM [%]
28 | O=C(NC12CC3CC(CC(C3)C1)C2)n1nc(-c2ccc(Cl)cc2)c(-c2ccc(Cl)cc2Cl)n1 [Compound 108] | 34.5
29 | CCCCOC(=O)CNC(=O)n1nc(-c2ccc(Cl)cc2)c(-c2ccc(Cl)cc2)n1 [Compound 109] | 58.1
30 | CCOC(=O)Cn1nc(-c2ccccc2)c(-c2ccccc2)n1 [Compound 110] | 59.1
31 | CCCCOC(=O)Cn1nc(-c2ccc(Cl)cc2)c(-c2ccc(Cl)cc2)n1 [Compound 112] | 82.1
32 | O=C(NC12CC3CC(CC(C3)C1)C2)n1nc(-c2ccc(Cl)cc2Cl)c(-c2ccc(Cl)cc2Cl)n1 [Compound 113] | 78.9
33 | CCCCCCOC(=O)Cn1nc(-c2ccc(Cl)cc2)c(-c2ccc(Cl)cc2Cl)n1 [Compound 114] | 39.1
34 | CCCCCCOC(=O)Cn1nc(-c2ccc(Cl)cc2Cl)c(-c2ccc(Cl)cc2Cl)n1 [Compound 115] | 72.7
35 | CCCCCOC(=O)Cn1nc(-c2ccc(Cl)cc2Cl)c(-c2ccc(Cl)cc2Cl)n1 [Compound 116] | 76.5
36 | CCCCCCCOC(=O)Cn1nc(-c2ccc(Cl)cc2Cl)c(-c2ccc(Cl)cc2Cl)n1 [Compound 117] | 47.5
37 | CCCCOC(=O)Cn1nc(-c2ccc(Cl)cc2)c(-c2ccc(Cl)cc2Cl)n1 [Compound 118] | 67.4
38 | O=C(Cn1nc(-c2ccc(Cl)cc2Cl)c(-c2ccc(Cl)cc2Cl)n1)NC1CCCCC1 [Compound 119] | 74.2
39 | O=C(Cn1nc(-c2ccc(Cl)cc2Cl)c(-c2ccc(Cl)cc2Cl)n1)NN1CCCCC1 [Compound 121] | 70.3
40 | O=C(Cn1nc(-c2ccccc2)c(-c2ccccc2)n1)NC1CCCCC1 [Compound 123] | 11.6
41 | O=C(Cn1nc(-c2ccc(Cl)cc2Cl)c(-c2ccc(Cl)cc2Cl)n1)Oc1ccccc1 [Compound 124] | 14.3
42 | C#CC1(NC(=O)Cn2nc(-c3ccc(Cl)cc3Cl)c(-c3ccc(Cl)cc3Cl)n2)CCCCC1 [Compound 126] | 102
43 | O=C(Cn1nc(-c2ccc(Cl)cc2Cl)c(-c2ccc(Cl)cc2Cl)n1)N[C@H]1c2ccccc2C[C@H]1O [Compound 127] | 89.4
44 | O=C(Cn1nc(-c2ccc(Cl)cc2Cl)c(-c2ccc(Cl)cc2Cl)n1)N[C@H]1c2ccccc2C[C@H]1OC(=O)Cn1nc(-c2ccc(Cl)cc2Cl)c(-c2ccc(Cl)cc2Cl)n1 [Compound 128] | 13.6
45 | O=C(Cn1nc(-c2ccc(Cl)cc2)c(-c2ccc(Cl)cc2Cl)n1)N1CCCCC1 [Compound 129] | 76.5
46 | O=C(Cn1nc(-c2ccc(Cl)cc2)c(-c2ccc(Cl)cc2)n1)N1CCCCC1 [Compound 130] | 48.6
47 | O=C(Cn1nc(-c2ccc(Cl)cc2Cl)c(-c2ccc(Cl)cc2Cl)n1)N1CCOCC1 [Compound 131] | 84.2
48 | O=C(Cn1nc(-c2ccc(Cl)cc2Cl)c(-c2ccc(Cl)cc2Cl)n1)N[C@H](CO)Cc1ccccc1 [Compound 132] | 88.2
49 | C[C@H](NC(=O)Cn1nc(-c2ccc(Cl)cc2Cl)c(-c2ccc(Cl)cc2Cl)n1)C(O)(c1ccccc1)c1ccccc1 [Compound 133] | 75.7
50 | COC[C@H](NC(=O)Cn1nc(-c2ccc(Cl)cc2Cl)c(-c2ccc(Cl)cc2Cl)n1)[C@@H](O)c1ccccc1 [Compound 134] | 95.9
51 | O=C(Cn1nc(-c2ccc(Cl)cc2Cl)c(-c2ccc(Cl)cc2Cl)n1)N[C@@H](CO)[C@H](O)c1ccc([N+](=O)[O-])cc1 [Compound 135] | 60.1
52 | CSc1ccc([C@@H](O)[C@@H](CO)NC(=O)Cn2nc(-c3ccc(Cl)cc3Cl)c(-c3ccc(Cl)cc3Cl)n2)cc1 [Compound 136] | 66.3
53 | O=C(Cn1nc(-c2ccc(Cl)cc2Cl)c(-c2ccc(Cl)cc2Cl)n1)N[C@@H](CO)[C@H](O)c1ccccc1 [Compound 137] | 59.3

Same assay, conditions: Table 2; percent inhibition at 10 μM; 10 µM

Row | SMILES | CB1 Inhibition (%) (10 μM)
54 | O=C(NC1CCCCC1)n1nc(-c2ccc(Cl)cc2Cl)c(-c2ccc(Cl)cc2Cl)n1 [Compound 74] | 50.80
55 | O=C(NC1CCCCC1)n1nc(-c2ccc(Cl)cc2Cl)c(-c2ccc(Cl)cc2Cl)n1 [Compound 97] | 29.20
56 | CCCCCCCCNC(=O)n1nc(-c2ccc(Cl)cc2Cl)c(-c2ccc(Cl)cc2Cl)n1 [Compound 98] | 19.40
57 | CCCCCCNC(=O)n1nc(-c2ccc(Cl)cc2Cl)c(-c2ccc(Cl)cc2Cl)n1 [Compound 99] | 6.60
58 | O=C(NC1CCCCC1)n1nc(-c2ccc(Cl)cc2)c(-c2ccc(Cl)cc2)n1 [Compound 100] | 19.90
59 | CCCCCCCCNC(=O)n1nc(-c2ccc(Cl)cc2)c(-c2ccc(Cl)cc2)n1 [Compound 102] | 15.70

Same assay, conditions: displacement of specific [3H]-CP55940 binding in HEK 293 cells stably transfected with human CB1 receptor

Row | SMILES | IC50 [nM]
60 | CCCCOC(=O)Cn1nc(-c2ccc(Cl)cc2)c(-c2ccc(Cl)cc2)n1 [Compound 112] | 2810 ± 301
61 | O=C(NC12CC3CC(CC(C3)C1)C2)n1nc(-c2ccc(Cl)cc2Cl)c(-c2ccc(Cl)cc2Cl)n1 [Compound 113] | 4500 ± 871
62 | CCCCCCOC(=O)Cn1nc(-c2ccc(Cl)cc2Cl)c(-c2ccc(Cl)cc2Cl)n1 [Compound 115] | 4460 ± 698
63 | CCCCCOC(=O)Cn1nc(-c2ccc(Cl)cc2Cl)c(-c2ccc(Cl)cc2Cl)n1 [Compound 116] | 2800 ± 544
64 | C#CC1(NC(=O)Cn2nc(-c3ccc(Cl)cc3Cl)c(-c3ccc(Cl)cc3Cl)n2)CCCCC1 [Compound 126] | 86.8 ± 1
65 | O=C(Cn1nc(-c2ccc(Cl)cc2Cl)c(-c2ccc(Cl)cc2Cl)n1)N[C@H]1c2ccccc2C[C@H]1O [Compound 127] | 1240 ± 697
66 | O=C(Cn1nc(-c2ccc(Cl)cc2)c(-c2ccc(Cl)cc2Cl)n1)N1CCCCC1 [Compound 129] | 587 ± 139
67 | O=C(Cn1nc(-c2ccc(Cl)cc2Cl)c(-c2ccc(Cl)cc2Cl)n1)N1CCOCC1 [Compound 131] | 71.9 ± 16.5
68 | O=C(Cn1nc(-c2ccc(Cl)cc2Cl)c(-c2ccc(Cl)cc2Cl)n1)N[C@H](CO)Cc1ccccc1 [Compound 132] | 295 ± 112
69 | C[C@H](NC(=O)Cn1nc(-c2ccc(Cl)cc2Cl)c(-c2ccc(Cl)cc2Cl)n1)C(O)(c1ccccc1)c1ccccc1 [Compound 133] | 760 ± 273
70 | COC[C@H](NC(=O)Cn1nc(-c2ccc(Cl)cc2Cl)c(-c2ccc(Cl)cc2Cl)n1)[C@@H](O)c1ccccc1 [Compound 134] | 806 ± 346
71 | O=C(Cn1nc(-c2ccc(Cl)cc2)c(-c2ccc(Cl)cc2Cl)n1)NC1CCCCC1 [Compound 138] | 1700 ± 425
72 | COC[C@H](NC(=O)Cn1nc(-c2ccc(Cl)cc2)c(-c2ccc(Cl)cc2Cl)n1)[C@@H](O)c1ccccc1 [Compound 140] | 1050 ± 256
